Results: patent publication US20250179059A1 (The Regents of the University of California, priority 2021, published 2025)

Key:
[1] = molecular target: T1, human BRD4 bromodomain II (Homo sapiens, UniProt O60885); test: Bromodomain binding assay (AlphaScreen), BRD4 BDII; conditions: AlphaScreen assay, Table C2; read-out: BRD4 BDII IC50
T1 construct: human BRD4 bromodomain II [based on Genbank NM_058243, residues 349-460]; host or cells: E. coli
In short: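 Inhibition of acetyl-H4 peptide binding to human BRD4 bromodomains is measured by bead-based proximity (AlphaScreen) in pH 7.5 HEPES buffer containing 0.05% CHAPS and 0.1% BSA. Ten compound concentrations in 3-fold steps give competitive binding IC50s.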

[2] = tested on: human SKM-1 acute myeloid leukemia cells; test: SKM-1 antiproliferation cell-based assay (ATPlite); conditions: Homo sapiens, SKM-1, 96 h, SKM-1 antiproliferation assay, 4 days, Table C2
In short: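 Log-phase cells in RPMI 1640/15% FBS were seeded at 34722 cells/mL and exposed for 4 days to nine-concentration DMSO serial dilutions in triplicate. Viability was read as ATP luminescence (ATPlite 1step), and IC50 values came from variable-slope non-linear regression.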

Structure (SMILES) | IC50 [1] | GI50 [2]
Cn1ccn(-c2ccc(-c3cc(F)cc(-c4ccnc(N5CC6CC6(N)C5)c4)c3O)cc2Cl)c1=O (stereo not drawn) [Example 721, 1-(3′-(2-(1-amino-3-azabicyclo[3.1.0]hexan-3-yl)pyridin-4-yl)-3-chloro-5′-fluoro-2′-hydroxy-[1,1′-biphenyl]-4-yl)-3-methyl-1H-imidazol-2(3H)-one] | 0.01 to 1 nM | 30 to 300 nM
Cc1ncc(-c2cc(F)cc(-c3ccc(-n4ccn(C)c4=O)c(Cl)c3)c2O)cc1N1CCN(C(C)C)CC1 [Example 722, 1-(3-chloro-5′-fluoro-2′-hydroxy-3′-(5-(4-isopropylpiperazin-1-yl)-6-methylpyridin-3-yl)-[1,1′-biphenyl]-4-yl)-3-methyl-1H-imidazol-2(3H)-one] | 0.01 to 1 nM | 0.3 to 30 nM
Cn1cc(-c2cc(F)cc(-c3ccc(-n4ccn(C)c4=O)c(Cl)c3)c2O)cc(N2CCC(C)(N)C2)c1=O (stereo not drawn) [Example 723, 3-(3-amino-3-methylpyrrolidin-1-yl)-5-(3′-chloro-5-fluoro-2-hydroxy-4′-(3-methyl-2-oxo-2,3-dihydro-1H-imidazol-1-yl)-[1,1′-biphenyl]-3-yl)-1-methylpyridin-2(1H)-one] | 1 to 10 nM | 0.3 to 30 nM
COCC(C)(C)N1CCN(c2cc(-c3cc(F)cc(-c4ccc(-n5ccn(C)c5=O)c(Cl)c4)c3O)ccn2)CC1 [Example 724, 1-(3-chloro-5′-fluoro-2′-hydroxy-3′-(2-(4-(1-methoxy-2-methylpropan-2-yl)piperazin-1-yl)pyridin-4-yl)-[1,1′-biphenyl]-4-yl)-3-methyl-1H-imidazol-2(3H)-one] | 0.01 to 1 nM | 0.3 to 30 nM
Cn1cc(-c2cc(F)cc(-c3ccc(-n4ccn(C)c4=O)c(Cl)c3)c2O)cc(N2CCC(C)(O)C2)c1=O (stereo not drawn) [Example 725, 5-(3′-chloro-5-fluoro-2-hydroxy-4′-(3-methyl-2-oxo-2,3-dihydro-1H-imidazol-1-yl)-[1,1′-biphenyl]-3-yl)-3-(3-hydroxy-3-methylpyrrolidin-1-yl)-1-methylpyridin-2(1H)-one] | 1 to 10 nM | 30 to 300 nM
Cn1ccn(-c2ccc(-c3cc(F)cc(-c4ccnc(N5C[C@@H](O)[C@H](O)C5)c4)c3O)cc2Cl)c1=O [Example 726, 1-(3-chloro-3′-(2-((3R,4R)-3,4-dihydroxypyrrolidin-1-yl)pyridin-4-yl)-5′-fluoro-2′-hydroxy-[1,1′-biphenyl]-4-yl)-3-methyl-1H-imidazol-2(3H)-one] | 0.01 to 1 nM | 0.3 to 30 nM
CC(C)N1CCC2CN(c3cc(-c4cc(F)cc(-c5ccc(-n6ccn(C)c6=O)c(Cl)c5)c4O)ccn3)CC21 (stereo not drawn) [Example 727, 1-(3-chloro-5′-fluoro-2′-hydroxy-3′-(2-(1-isopropylhexahydropyrrolo[3,4-b]pyrrol-5(1H)-yl)pyridin-4-yl)-[1,1′-biphenyl]-4-yl)-3-methyl-1H-imidazol-2(3H)-one] | 0.01 to 1 nM | 0.3 to 30 nM
Cn1ccn(-c2ccc(-c3cc(F)cc(-c4cncc(N5CC[C@@](C)(O)C5)c4)c3O)cc2Cl)c1=O [Example 728, (R)-1-(3-chloro-5′-fluoro-2′-hydroxy-3′-(5-(3-hydroxy-3-methylpyrrolidin-1-yl)pyridin-3-yl)-[1,1′-biphenyl]-4-yl)-3-methyl-1H-imidazol-2(3H)-one] | 1 to 10 nM | 0.3 to 30 nM
Cn1ccn(-c2ccc(-c3cc(F)cc(-c4cncc(N5CC[C@](C)(O)C5)c4)c3O)cc2Cl)c1=O [Example 729, (S)-1-(3-chloro-5′-fluoro-2′-hydroxy-3′-(5-(3-hydroxy-3-methylpyrrolidin-1-yl)pyridin-3-yl)-[1,1′-biphenyl]-4-yl)-3-methyl-1H-imidazol-2(3H)-one] | 0.01 to 1 nM | 0.3 to 30 nM
CC(C)N1C2CCC1CN(c1cc(-c3cc(F)cc(-c4ccc(-n5ccn(C)c5=O)c(Cl)c4)c3O)ccn1)C2 [Example 730, 1-(3-chloro-5′-fluoro-2′-hydroxy-3′-(2-(8-isopropyl-3,8-diazabicyclo[3.2.1]octan-3-yl)pyridin-4-yl)-[1,1′-biphenyl]-4-yl)-3-methyl-1H-imidazol-2(3H)-one] | 0.01 to 1 nM | 0.3 to 30 nM
Cn1ccn(-c2ccc(-c3cc(F)cc(-c4ccnc(N5CCC(O)(CO)C5)c4)c3O)cc2Cl)c1=O (stereo not drawn) [Example 731, 1-(3-chloro-5′-fluoro-2′-hydroxy-3′-(2-(3-hydroxy-3-(hydroxymethyl)pyrrolidin-1-yl)pyridin-4-yl)-[1,1′-biphenyl]-4-yl)-3-methyl-1H-imidazol-2(3H)-one] | 0.01 to 1 nM | 0.3 to 30 nM
COc1cc(-c2cc(F)cc(-c3ccc(-n4ccn(C)c4=O)c(Cl)c3)c2O)cc(N2CCN(C(C)(C)C)CC2)n1 [Example 732, 1-(3′-(2-(4-(tert-butyl)piperazin-1-yl)-6-methoxypyridin-4-yl)-3-chloro-5′-fluoro-2′-hydroxy-[1,1′-biphenyl]-4-yl)-3-methyl-1H-imidazol-2(3H)-one] | 1 to 10 nM | 0.3 to 30 nM
COCC(COC)N1CCN(c2cc(-c3cc(F)cc(-c4ccc(-n5ccn(C)c5=O)c(Cl)c4)c3O)ccn2)CC1 [Example 733, 1-(3-chloro-3′-(2-(4-(1,3-dimethoxypropan-2-yl)piperazin-1-yl)pyridin-4-yl)-5′-fluoro-2′-hydroxy-[1,1′-biphenyl]-4-yl)-3-methyl-1H-imidazol-2(3H)-one] | 1 to 10 nM | 30 to 300 nM
Cn1ccn(-c2ccc(-c3cc(F)cc(-c4cccc(N5CCN(C(C)(C)C)CC5)c4)c3O)cc2Cl)c1=O [Example 734, 1-(3″-(4-(tert-butyl)piperazin-1-yl)-3-chloro-5′-fluoro-2′-hydroxy-[1,1′:3′,1″-terphenyl]-4-yl)-3-methyl-1H-imidazol-2(3H)-one] | 0.01 to 1 nM | 0.3 to 30 nM
Cn1ccn(-c2ccc(-c3cc(F)cc(-c4cc(N5CCN(C(C)(C)C)CC5)n(C)c(=O)c4)c3O)cc2Cl)c1=O [Example 735, 6-(4-(tert-butyl)piperazin-1-yl)-4-(3′-chloro-5-fluoro-2-hydroxy-4′-(3-methyl-2-oxo-2,3-dihydro-1H-imidazol-1-yl)-[1,1′-biphenyl]-3-yl)-1-methylpyridin-2(1H)-one] | 0.01 to 1 nM | 0.3 to 30 nM
Cn1ccn(-c2ccc(-c3cc(F)cc(-c4ccnc(N5CCC6(CCC(=O)N6)C5)c4)c3O)cc2Cl)c1=O (stereo not drawn) [Example 736, 7-(4-(3′-chloro-5-fluoro-2-hydroxy-4′-(3-methyl-2-oxo-2,3-dihydro-1H-imidazol-1-yl)-[1,1′-biphenyl]-3-yl)pyridin-2-yl)-1,7-diazaspiro[4.4]nonan-2-one] | 0.01 to 1 nM | 0.3 to 30 nM
CCC1(O)CCN(c2cc(-c3cc(F)cc(-c4ccc(-n5ccn(C)c5=O)c(Cl)c4)c3O)ccn2)C1 (stereo not drawn) [Example 737, 1-(3-chloro-3′-(2-(3-ethyl-3-hydroxypyrrolidin-1-yl)pyridin-4-yl)-5′-fluoro-2′-hydroxy-[1,1′-biphenyl]-4-yl)-3-methyl-1H-imidazol-2(3H)-one] | 0.01 to 1 nM | 0.3 to 30 nM
COc1ncc(-c2cc(F)cc(-c3ccc(-n4ccn(C)c4=O)c(Cl)c3)c2O)cc1N1CCN(C(C)C)CC1 [Example 738, 1-(3-chloro-5′-fluoro-2′-hydroxy-3′-(5-(4-isopropylpiperazin-1-yl)-6-methoxypyridin-3-yl)-[1,1′-biphenyl]-4-yl)-3-methyl-1H-imidazol-2(3H)-one] | 0.01 to 1 nM | 0.3 to 30 nM
Cn1ccn(-c2ccc(-c3cc(F)cc(-c4ccnc(N5C[C@@H](O)[C@@H](O)C5)c4)c3O)cc2Cl)c1=O [Example 739, 1-(3-chloro-3′-(2-((3S,4R)-3,4-dihydroxypyrrolidin-1-yl)pyridin-4-yl)-5′-fluoro-2′-hydroxy-[1,1′-biphenyl]-4-yl)-3-methyl-1H-imidazol-2(3H)-one] | 0.01 to 1 nM | 0.3 to 30 nM
CC(C)N1C2CCC1CN(c1cncc(-c3cc(F)cc(-c4ccc(-n5ccn(C)c5=O)c(Cl)c4)c3O)c1)C2 [Example 740, 1-(3-chloro-5′-fluoro-2′-hydroxy-3′-(5-(8-isopropyl-3,8-diazabicyclo[3.2.1]octan-3-yl)pyridin-3-yl)-[1,1′-biphenyl]-4-yl)-3-methyl-1H-imidazol-2(3H)-one] | 0.01 to 1 nM | 0.3 to 30 nM
CN(C)C1(C)CCN(c2cc(-c3cc(F)cc(-c4ccc(-n5ccn(C)c5=O)c(Cl)c4)c3O)ccn2)C1 (stereo not drawn) [Example 741, 1-(3-chloro-3′-(2-(3-(dimethylamino)-3-methylpyrrolidin-1-yl)pyridin-4-yl)-5′-fluoro-2′-hydroxy-[1,1′-biphenyl]-4-yl)-3-methyl-1H-imidazol-2(3H)-one] | 0.01 to 1 nM | 0.3 to 30 nM
Cn1ccn(-c2ccc(-c3cc(F)cc(-c4cncc(N5CC[C@@](C)(N)C5)c4)c3O)cc2Cl)c1=O [Example 742, (R)-1-(3′-(5-(3-amino-3-methylpyrrolidin-1-yl)pyridin-3-yl)-3-chloro-5′-fluoro-2′-hydroxy-[1,1′-biphenyl]-4-yl)-3-methyl-1H-imidazol-2(3H)-one] | 0.01 to 1 nM | 0.3 to 30 nM
Cn1ccn(-c2ccc(-c3cc(F)cc(-c4ccnc(N5CC(O)C6(CC6)C5)c4)c3O)cc2Cl)c1=O (stereo not drawn) [Example 743, 1-(3-chloro-5′-fluoro-2′-hydroxy-3′-(2-(7-hydroxy-5-azaspiro[2.4]heptan-5-yl)pyridin-4-yl)-[1,1′-biphenyl]-4-yl)-3-methyl-1H-imidazol-2(3H)-one] | 0.01 to 1 nM | 0.3 to 30 nM
Cn1ccn(-c2ccc(-c3cc(F)cc(-c4ccnc(N5CCCC(C)(N)C5)c4)c3O)cc2Cl)c1=O (stereo not drawn) [Example 744, 1-(3′-(2-(3-amino-3-methylpiperidin-1-yl)pyridin-4-yl)-3-chloro-5′-fluoro-2′-hydroxy-[1,1′-biphenyl]-4-yl)-3-methyl-1H-imidazol-2(3H)-one] | 0.01 to 1 nM | 0.3 to 30 nM
